In the supplement of paper PMC10307832:

Assays:
Assay in all cases: relative viability (nuclei count vs DMSO), 5 days (fraction); higher = more cells survive
NCI-H650 = test system: NCI-H650
Outline: (§1)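 Nuclei were stained with Hoechst during a one-step fixation (final 0.05% Triton X-100, 1% formaldehyde, 1 ug/ml Hoechst) carried out 5 days after dosing, then counted on 4× images. The cells, lung cancer lines in 1536-well plates, had been dosed by pin tool the day after seeding with one drug alone or a fixed anchor-drug dose plus five library-drug doses (not always all listed) in √10 steps. Relative viability is the nuclei count in treated wells divided by that in vehicle wells, and each value is the median of duplicate plates.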

HCC-827 = test system: HCC-827
Outline: as §1

LCLC-97TM1 = test system: LCLC-97TM1
Outline: as §1

NCI-H1944 = test system: NCI-H1944
Outline: as §1

NCI-H2087 = test system: NCI-H2087
Outline: as §1

NCI-H2405 = test system: NCI-H2405
Outline: as §1

NCI-H1355 = test system: NCI-H1355
Outline: as §1

HCC-44 = test system: HCC-44
Outline: as §1

NCI-H1563 = test system: NCI-H1563
Outline: as §1

H3255 = test system: H3255
Outline: as §1

LCLC-103H = test system: LCLC-103H
Outline: as §1

NCI-H1793 = test system: NCI-H1793
Outline: as §1

NCI-H2085 = test system: NCI-H2085
Outline: as §1

NCI-H23 = test system: NCI-H23
Outline: as §1

NCI-H322M = test system: NCI-H322M
Outline: as §1

NCI-H520 = test system: NCI-H520
Outline: as §1

EPLC-272H = test system: EPLC-272H
Outline: as §1

NCI-H1993 = test system: NCI-H1993
Outline: as §1

UMC-11 = test system: UMC-11
Outline: as §1

ChaGo-K-1 = test system: ChaGo-K-1
Outline: as §1

SK-MES-1 = test system: SK-MES-1
Outline: as §1

NCI-H1651 = test system: NCI-H1651
Outline: as §1

NCI-H1395 = test system: NCI-H1395
Outline: as §1

EMC-BAC-2 = test system: EMC-BAC-2
Outline: as §1

COc1cc(N2CCC(C(N)=O)CC2)ccc1Nc1nc(N)c(Cl)c(Nc2ccccc2S(=O)(=O)C(C)C)n1 [HG-5-88-01] + N=C(N)NC(=N)NCCc1ccccc1 [Phenformin] (partner 250 µM)
relative viability (NCI-H650; first compound 0.04 µM): 0.429
relative viability (NCI-H650; first compound 0.1265 µM): 0.492
relative viability (NCI-H650; first compound 0.4 µM): 0.417
relative viability (NCI-H650; first compound 1.265 µM): 0.424
relative viability (NCI-H650; first compound 4 µM): 0.335
relative viability (HCC-827; first compound 0.04 µM): 0.432
relative viability (HCC-827; first compound 0.1265 µM): 0.413
relative viability (HCC-827; first compound 0.4 µM): 0.384
relative viability (HCC-827; first compound 1.265 µM): 0.29
relative viability (HCC-827; first compound 4 µM): 0.249
relative viability (LCLC-97TM1; first compound 0.04 µM): 0.483
relative viability (LCLC-97TM1; first compound 0.1265 µM): 0.42
relative viability (LCLC-97TM1; first compound 0.4 µM): 0.394
relative viability (LCLC-97TM1; first compound 1.265 µM): 0.357
relative viability (LCLC-97TM1; first compound 4 µM): 0.204
relative viability (NCI-H1944; first compound 0.04 µM): 0.213
relative viability (NCI-H1944; first compound 0.1265 µM): 0.241
relative viability (NCI-H1944; first compound 0.4 µM): 0.262
relative viability (NCI-H1944; first compound 1.265 µM): 0.209
relative viability (NCI-H1944; first compound 4 µM): 0.22
relative viability (NCI-H2087; first compound 0.04 µM): 0.523
relative viability (NCI-H2087; first compound 0.1265 µM): 0.49
relative viability (NCI-H2087; first compound 0.4 µM): 0.469
relative viability (NCI-H2087; first compound 1.265 µM): 0.342
relative viability (NCI-H2087; first compound 4 µM): 0.319
relative viability (NCI-H2405; first compound 0.04 µM): 0.46
relative viability (NCI-H2405; first compound 0.1265 µM): 0.484
relative viability (NCI-H2405; first compound 0.4 µM): 0.469
relative viability (NCI-H2405; first compound 1.265 µM): 0.38
relative viability (NCI-H2405; first compound 4 µM): 0.432
relative viability (NCI-H1355; first compound 0.04 µM): 0.487
relative viability (NCI-H1355; first compound 0.1265 µM): 0.493
relative viability (NCI-H1355; first compound 0.4 µM): 0.431
relative viability (NCI-H1355; first compound 1.265 µM): 0.455
relative viability (NCI-H1355; first compound 4 µM): 0.316
relative viability (HCC-44; first compound 0.04 µM): 0.303
relative viability (HCC-44; first compound 0.1265 µM): 0.156
relative viability (HCC-44; first compound 0.4 µM): 0.201
relative viability (HCC-44; first compound 1.265 µM): 0.159
relative viability (HCC-44; first compound 4 µM): 0.0886
relative viability (NCI-H1563; first compound 0.04 µM): 0.7
relative viability (NCI-H1563; first compound 0.1265 µM): 0.64
relative viability (NCI-H1563; first compound 0.4 µM): 0.683
relative viability (NCI-H1563; first compound 1.265 µM): 0.604
relative viability (NCI-H1563; first compound 4 µM): 0.601
relative viability (H3255; first compound 0.04 µM): 0.381
relative viability (H3255; first compound 0.1265 µM): 0.325
relative viability (H3255; first compound 0.4 µM): 0.332
relative viability (H3255; first compound 4 µM): 0.32
relative viability (LCLC-103H; first compound 0.04 µM): 0.332
relative viability (LCLC-103H; first compound 0.1265 µM): 0.342
relative viability (LCLC-103H; first compound 0.4 µM): 0.311
relative viability (LCLC-103H; first compound 1.265 µM): 0.308
relative viability (LCLC-103H; first compound 4 µM): 0.302
relative viability (NCI-H1793; first compound 0.1265 µM): 0.431
relative viability (NCI-H1793; first compound 0.4 µM): 0.375
relative viability (NCI-H1793; first compound 4 µM): 0.221
relative viability (NCI-H2085; first compound 0.04 µM): 0.656
relative viability (NCI-H2085; first compound 0.1265 µM): 0.799
relative viability (NCI-H2085; first compound 0.4 µM): 0.685
relative viability (NCI-H2085; first compound 1.265 µM): 0.622
relative viability (NCI-H2085; first compound 4 µM): 0.395
relative viability (NCI-H23; first compound 0.04 µM): 0.767
relative viability (NCI-H23; first compound 0.1265 µM): 0.833
relative viability (NCI-H23; first compound 0.4 µM): 0.786
relative viability (NCI-H23; first compound 1.265 µM): 0.868
relative viability (NCI-H23; first compound 4 µM): 0.441
relative viability (NCI-H322M; first compound 0.04 µM): 0.793
relative viability (NCI-H322M; first compound 0.1265 µM): 0.669
relative viability (NCI-H322M; first compound 0.4 µM): 0.689
relative viability (NCI-H322M; first compound 4 µM): 0.704
relative viability (NCI-H520; first compound 0.04 µM): 0.441
relative viability (NCI-H520; first compound 0.1265 µM): 0.67
relative viability (NCI-H520; first compound 0.4 µM): 0.57
relative viability (NCI-H520; first compound 1.265 µM): 0.431
relative viability (NCI-H520; first compound 4 µM): 0.492
relative viability (EPLC-272H; first compound 0.04 µM): 0.352
relative viability (EPLC-272H; first compound 0.1265 µM): 0.34
relative viability (EPLC-272H; first compound 0.4 µM): 0.274
relative viability (EPLC-272H; first compound 1.265 µM): 0.253
relative viability (EPLC-272H; first compound 4 µM): 0.0477
relative viability (NCI-H1993; first compound 0.04 µM): 0.501
relative viability (NCI-H1993; first compound 0.1265 µM): 0.471
relative viability (NCI-H1993; first compound 0.4 µM): 0.438
relative viability (NCI-H1993; first compound 1.265 µM): 0.558
relative viability (NCI-H1993; first compound 4 µM): 0.527
relative viability (UMC-11; first compound 0.04 µM): 0.336
relative viability (UMC-11; first compound 0.1265 µM): 0.419
relative viability (UMC-11; first compound 1.265 µM): 0.359
relative viability (UMC-11; first compound 4 µM): 0.263
relative viability (ChaGo-K-1; first compound 0.04 µM): 0.586
relative viability (ChaGo-K-1; first compound 0.1265 µM): 0.51
relative viability (ChaGo-K-1; first compound 0.4 µM): 0.449
relative viability (ChaGo-K-1; first compound 1.265 µM): 0.525
relative viability (ChaGo-K-1; first compound 4 µM): 0.383
relative viability (SK-MES-1; first compound 0.04 µM): 0.665
relative viability (SK-MES-1; first compound 0.1265 µM): 0.646
relative viability (SK-MES-1; first compound 0.4 µM): 0.652
relative viability (SK-MES-1; first compound 1.265 µM): 0.602
relative viability (SK-MES-1; first compound 4 µM): 0.643
relative viability (NCI-H1651; first compound 0.04 µM): 0.358
relative viability (NCI-H1651; first compound 0.1265 µM): 0.341
relative viability (NCI-H1651; first compound 0.4 µM): 0.367
relative viability (NCI-H1651; first compound 1.265 µM): 0.348
relative viability (NCI-H1651; first compound 4 µM): 0.346
relative viability (NCI-H1395; first compound 0.04 µM): 0.423
relative viability (NCI-H1395; first compound 0.1265 µM): 0.422
relative viability (NCI-H1395; first compound 0.4 µM): 0.45
relative viability (NCI-H1395; first compound 1.265 µM): 0.449
relative viability (NCI-H1395; first compound 4 µM): 0.463
relative viability (EMC-BAC-2; first compound 0.04 µM): 0.541
relative viability (EMC-BAC-2; first compound 0.1265 µM): 0.491
relative viability (EMC-BAC-2; first compound 0.4 µM): 0.442
relative viability (EMC-BAC-2; first compound 1.265 µM): 0.507
relative viability (EMC-BAC-2; first compound 4 µM): 0.486
